The source made the active and inactive calls. The calls are words filed in the database; no cut-off is given here.
Tests used:
SGC-7901 = assay: Antiproliferative activity against human SGC7901 cells after 72 hrs by MTT assay; format: functional, cell-based; details: SGC-7901, 72 h
HeLa = assay: Antiproliferative activity against human HeLa cells after 72 hrs by MTT assay; format: functional, cell-based
[1] = Antiproliferative activity against human U87 cells after 72 hrs by MTT assay; format: functional, cell-based, U-87MG ATCC; details: U-87 MG
Homo sapiens [2] = species: Homo sapiens; assay: Inhibition of PI3K/Akt activation in human U87 cells assessed as decrease in Bcl-2 protein expression after 72 hrs by Western blot method; format: cell-based
L02 = assay: Cytotoxicity against human LO2 cells assessed as reduction in cell viability after 72 hrs by MTT assay; format: cell-based; details: L02, 72 h
[3] = Induction of NO production at 100 uM in presence of 5.0 mM L-cysteine incubated for 120 mins measured every 15 mins by Griess assay
U-87MG ATCC = assay: Antiproliferative activity against human U87 cells after 72 hrs in presence of NO scavenger hemoglobin/PTIO by MTT assay; format: functional, cell-based
[4] = Cell cycle arrest in human U87 cells assessed as accumulation at G1 phase at 0.5 nM after 72 hrs by propidium iodide staining based flow cytometry (reference value: 54.11%); format: functional, U-87MG ATCC
[5] = Cell cycle arrest in human U87 cells assessed as accumulation at G1 phase at 1 nM after 72 hrs by propidium iodide staining based flow cytometry (reference value: 54.11%); format: functional, U-87MG ATCC
[6] = Cell cycle arrest in human U87 cells assessed as accumulation at G1 phase at 2 nM after 72 hrs by propidium iodide staining based flow cytometry (reference value: 54.11%); format: functional, U-87MG ATCC
[7] = Cell cycle arrest in human U87 cells assessed as accumulation at G2 phase at 0.5 nM after 72 hrs by propidium iodide staining based flow cytometry (reference value: 18.86%); format: functional, U-87MG ATCC
[8] = Cell cycle arrest in human U87 cells assessed as accumulation at G2 phase at 1 nM after 72 hrs by propidium iodide staining based flow cytometry (reference value: 18.86%); format: functional, U-87MG ATCC
[9] = Cell cycle arrest in human U87 cells assessed as accumulation at G2 phase at 2 nM after 72 hrs by propidium iodide staining based flow cytometry (reference value: 18.86%); format: functional, U-87MG ATCC
[10] = Cell cycle arrest in human U87 cells assessed as accumulation at S phase at 0.5 nM after 72 hrs by propidium iodide staining based flow cytometry (reference value: 27.03%); format: functional, U-87MG ATCC
[11] = Cell cycle arrest in human U87 cells assessed as accumulation at S phase at 1 nM after 72 hrs by propidium iodide staining based flow cytometry (reference value: 27.03%); format: functional, U-87MG ATCC
[12] = Cell cycle arrest in human U87 cells assessed as accumulation at S phase at 2 nM after 72 hrs by propidium iodide staining based flow cytometry (reference value: 27.03%); format: functional, U-87MG ATCC
[13] = Induction of apoptosis in human U87 cells assessed as viable cells at 0.5 nM measured after 72 hrs by Annexin V-APC/7-AAD staining based flow cytometry (reference value: 92.71%); format: functional, U-87MG ATCC; details: U-87 MG, read-out: Activity
[14] = Induction of apoptosis in human U87 cells assessed as viable cells at 1 nM measured after 72 hrs by Annexin V-APC/7-AAD staining based flow cytometry (reference value: 92.71%); format: functional, U-87MG ATCC; details: U-87 MG, read-out: Activity
[15] = Induction of apoptosis in human U87 cells assessed as viable cells at 2 nM measured after 72 hrs by Annexin V-APC/7-AAD staining based flow cytometry (reference value: 92.71%); format: functional, U-87MG ATCC; details: U-87 MG, read-out: Activity
[16] = Induction of apoptosis in human U87 cells assessed as early apoptotic cells at 0.5 nM measured after 72 hrs by Annexin V-APC/7-AAD staining based flow cytometry (reference value: 3.82%); format: functional, U-87MG ATCC
[17] = Induction of apoptosis in human U87 cells assessed as early apoptotic cells at 1 nM measured after 72 hrs by Annexin V-APC/7-AAD staining based flow cytometry (reference value: 3.82%); format: functional, U-87MG ATCC
[18] = Induction of apoptosis in human U87 cells assessed as early apoptotic cells at 2 nM measured after 72 hrs by Annexin V-APC/7-AAD staining based flow cytometry (reference value: 3.82%); format: functional, U-87MG ATCC
[19] = Induction of apoptosis in human U87 cells assessed as late apoptotic cells at 0.5 nM measured after 72 hrs by Annexin V-APC/7-AAD staining based flow cytometry (reference value: 3.02%); format: functional, U-87MG ATCC
[20] = Induction of apoptosis in human U87 cells assessed as late apoptotic cells at 1 nM measured after 72 hrs by Annexin V-APC/7-AAD staining based flow cytometry (reference value: 3.02%); format: functional, U-87MG ATCC
[21] = Induction of apoptosis in human U87 cells assessed as late apoptotic cells at 2 nM measured after 72 hrs by Annexin V-APC/7-AAD staining based flow cytometry (reference value: 3.02%); format: functional, U-87MG ATCC
[22] = Induction of apoptosis in human U87 cells assessed as necrotic cells at 0.5 nM measured after 72 hrs by Annexin V-APC/7-AAD staining based flow cytometry (reference value: 0.44%); format: functional, U-87MG ATCC
[23] = Induction of apoptosis in human U87 cells assessed as necrotic cells at 1 nM measured after 72 hrs by Annexin V-APC/7-AAD staining based flow cytometry (reference value: 0.44%); format: functional, U-87MG ATCC
[24] = Induction of apoptosis in human U87 cells assessed as necrotic cells at 2 nM measured after 72 hrs by Annexin V-APC/7-AAD staining based flow cytometry (reference value: 0.44%); format: functional, U-87MG ATCC
Homo sapiens [25] = species: Homo sapiens; assay: Inhibition of PI3K/Akt activation in human U87 cells assessed as increase in pro-apoptotic Bax protein expression after 72 hrs by Western blot method; format: cell-based
Homo sapiens [26] = species: Homo sapiens; assay: Inhibition of PI3K/Akt activation in human U87 cells assessed as increase in caspase-3 level after 72 hrs by Western blot method; format: cell-based
[27] = target: RAC-alpha serine/threonine-protein kinase (Homo sapiens) (UniProt P31749); assay: Inhibition of Akt phosphorylation in human U87 cells after 72 hrs by Western blot method; format: cell-based
RAC-alpha serine/threonine-protein kinase (Homo sapiens), sequence (P31749 whole entry): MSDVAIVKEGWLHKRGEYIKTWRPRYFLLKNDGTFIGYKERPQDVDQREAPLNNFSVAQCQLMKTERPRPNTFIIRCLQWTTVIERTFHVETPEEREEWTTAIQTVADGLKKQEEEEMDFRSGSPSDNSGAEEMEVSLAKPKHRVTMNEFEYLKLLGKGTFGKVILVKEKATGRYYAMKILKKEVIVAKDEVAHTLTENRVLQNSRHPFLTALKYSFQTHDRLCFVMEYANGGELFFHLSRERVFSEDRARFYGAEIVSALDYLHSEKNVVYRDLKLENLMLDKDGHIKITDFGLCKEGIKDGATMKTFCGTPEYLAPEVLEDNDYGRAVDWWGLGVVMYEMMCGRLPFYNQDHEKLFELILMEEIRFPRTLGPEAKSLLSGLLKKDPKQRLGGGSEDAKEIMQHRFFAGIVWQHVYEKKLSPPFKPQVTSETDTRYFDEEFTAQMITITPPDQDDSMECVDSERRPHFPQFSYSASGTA

H22 [28] = assay: Antitumor activity against […] cells xenografted in ICR mouse assessed as tumor growth inhibition at 30 mg/kg, iv qd for 3 weeks relative to control; format: functional; details: 504 h, read-out: TGI
H22 [29] = assay: Antitumor activity against […] cells xenografted in ICR mouse assessed as tumor growth inhibition at 60 mg/kg, iv qd for 3 weeks relative to control; format: functional; details: 504 h, read-out: TGI
H22 [30] = assay: Antitumor activity against […] cells xenografted in iv dosed ICR mouse assessed as tumor growth inhibition administered qd for 3 weeks; format: functional, organism-based
Mus musculus [31] = assay: Toxicity in ICR mouse xenografted with […] cells assessed as body weight at 60 mg/kg, iv administered qd for 3 weeks (reference value: 22.9 +/- 0.4 g); format: organism-based; details: in vivo, 504 h
Mus musculus [32] = assay: Toxicity in ICR mouse xenografted with […] cells assessed as body weight at 30 mg/kg, iv administered qd for 3 weeks (reference value: 22.9 +/- 0.4 g); format: organism-based; details: in vivo, 504 h

SMILES: C=C[C@]1(C)CC[C@@H](C(=C)COC(=O)CCNC(=O)CCC(=O)OCCCCOc2no[n+]([O-])c2S(=O)(=O)c2ccccc2)C[C@H]1C(=C)C
- IC50 (SGC-7901): 7.78 µM
- IC50 (HeLa): 8.86 µM
- IC50 [1]: 0.058 µM

SMILES: C=C[C@]1(C)CC[C@@H](C(=C)COC(=O)CCC(=O)OCCCCOc2no[n+]([O-])c2S(=O)(=O)c2ccccc2)C[C@H]1C(=C)C
- IC50 (SGC-7901): 8.76 µM
- IC50 (HeLa): 10.9 µM
- IC50 [1]: 0.007 µM

SMILES: C=C[C@]1(C)CC[C@@H](C(=C)COC(=O)CCC(=O)OCC#CCOc2no[n+]([O-])c2S(=O)(=O)c2ccccc2)C[C@H]1C(=C)C
- IC50 (SGC-7901): 4.97 µM
- IC50 (HeLa): 3.78 µM
- IC50 [1]: 0.085 µM

SMILES: C=C[C@]1(C)CC[C@@H](C(=C)COC(=O)CCC(=O)OCCOc2no[n+]([O-])c2S(=O)(=O)c2ccccc2)C[C@H]1C(=C)C
- inhibition (Homo sapiens [2]): Dose-dependent effect
- IC50 (SGC-7901): 3.18 µM
- IC50 (HeLa): 4.94 µM
- IC50 [1]: 0.002 µM
- IC50 (L02): 30.4 µM
- Activity [3]: Active
- Activity (U-87MG ATCC): Dose-dependent effect
- Activity [4]: 50.4%
- Activity [5]: 34.97%
- Activity [6]: 26.96%
- Activity [7]: 22.91%
- Activity [8]: 33.35%
- Activity [9]: 47.99%
- Activity [10]: 26.69%
- Activity [11]: 31.68%
- Activity [12]: 25.04%
- viability at 0.0005 µM [13]: 80.4%
- viability at 0.001 µM [14]: 64.9%
- viability at 0.002 µM [15]: 46%
- Activity [16]: 8.16%
- Activity [17]: 25.03%
- Activity [18]: 34.63%
- Activity [19]: 10.16%
- Activity [20]: 9.91%
- Activity [21]: 19.07%
- Activity [22]: 1.25%
- Activity [23]: 0.19%
- Activity [24]: 0.25%
- inhibition (Homo sapiens [25]): Dose-dependent effect
- inhibition (Homo sapiens [26]): Dose-dependent effect
- inhibition [27]: Dose-dependent effect
- inhibition in vivo at 30 mg/kg (H22 [28]): 50.2%
- inhibition in vivo at 60 mg/kg (H22 [29]): 64.8%
- TGI (H22 [30]): Dose-dependent effect
- Activity (Mus musculus [31]): 20.9 g
- Activity (Mus musculus [32]): 21.6 g

SMILES: O=C(O)CCC(=O)OCCOc1c(S(=O)(=O)c2ccccc2)no[n+]1[O-]
- IC50 [1]: 32.2 µM

SMILES: C=C[C@]1(C)CC[C@@H](C(=C)COC(=O)CCC(=O)OCCCCCCOc2no[n+]([O-])c2S(=O)(=O)c2ccccc2)C[C@H]1C(=C)C
- IC50 (SGC-7901): 22.9 µM
- IC50 (HeLa): 23.2 µM
- IC50 [1]: 0.154 µM
- Activity [3]: inactive

SMILES: C=C[C@]1(C)CC[C@@H](C(=C)COC(=O)CNC(=O)CCC(=O)OCCCCOc2no[n+]([O-])c2S(=O)(=O)c2ccccc2)C[C@H]1C(=C)C
- IC50 (SGC-7901): 15.3 µM
- IC50 (HeLa): 10.2 µM
- IC50 [1]: 0.173 µM

SMILES: C=C[C@]1(C)CC[C@@H](C(=C)COC(=O)[C@@H](NC(=O)CCC(=O)OCCCCOc2no[n+]([O-])c2S(=O)(=O)c2ccccc2)[C@@H](C)CC)C[C@H]1C(=C)C
- IC50 (SGC-7901): 3.66 µM
- IC50 (HeLa): 4.25 µM
- IC50 [1]: 0.01 µM
- Activity [3]: Active

SMILES: C=C[C@]1(C)CC[C@@H](C(=C)COC(=O)[C@H](C)NC(=O)CCC(=O)OCCCCOc2no[n+]([O-])c2S(=O)(=O)c2ccccc2)C[C@H]1C(=C)C
- IC50 (SGC-7901): 11.8 µM
- IC50 (HeLa): 10.9 µM
- IC50 [1]: 0.114 µM

SMILES: C=C[C@]1(C)CC[C@@H](C(=C)COC(=O)[C@@H](N)CC(=O)OCCCCOc2no[n+]([O-])c2S(=O)(=O)c2ccccc2)C[C@H]1C(=C)C
- IC50 (SGC-7901): 2.92 µM
- IC50 (HeLa): 3.64 µM
- IC50 [1]: 0.124 µM
- Activity [3]: Active

SMILES: C=C[C@]1(C)CC[C@@H](C(=C)C)C[C@H]1C(=C)C
- IC50 (SGC-7901): 236 µM
- IC50 (HeLa): 214 µM
- IC50 [1]: 180 µM
- inhibition in vivo at 60 mg/kg (H22 [29]): 49.6%
- Activity (Mus musculus [31]): 20 g

SMILES: C=C[C@]1(C)CC[C@@H](C(=C)COC(=O)c2ccccc2C(=O)OCCCCOc2no[n+]([O-])c2S(=O)(=O)c2ccccc2)C[C@H]1C(=C)C
- IC50 (SGC-7901): 27.8 µM
- IC50 (HeLa): 21.9 µM
- IC50 [1]: 0.081 µM
- Activity [3]: inactive

SMILES: C=C[C@]1(C)CC[C@@H](C(=C)CO)C[C@H]1C(=C)C
- IC50 [1]: 198 µM

SMILES: C=C[C@]1(C)CC[C@@H](C(=C)COC(=O)[C@@H]2CCCN2C(=O)CCC(=O)OCCCCOc2no[n+]([O-])c2S(=O)(=O)c2ccccc2)C[C@H]1C(=C)C
- IC50 (SGC-7901): 9.49 µM
- IC50 (HeLa): 11.2 µM
- IC50 [1]: 0.055 µM

SMILES: C=C[C@]1(C)CC[C@@H](C(=C)COC(=O)CCC(=O)OCCOCCOc2no[n+]([O-])c2S(=O)(=O)c2ccccc2)C[C@H]1C(=C)C
- IC50 (SGC-7901): 4.66 µM
- IC50 (HeLa): 5.78 µM
- IC50 [1]: 0.024 µM

SMILES: C=C[C@]1(C)CC[C@@H](C(=C)COC(=O)[C@H](Cc2ccccc2)NC(=O)CCC(=O)OCCCCOc2no[n+]([O-])c2S(=O)(=O)c2ccccc2)C[C@H]1C(=C)C
- IC50 (SGC-7901): 9.97 µM
- IC50 (HeLa): 10.8 µM
- IC50 [1]: 0.061 µM
